According to patent publication US5164388A, “Heterocyclic peptide renin inhibitors” (Abbott Laboratories, priority 1991, dated 1992):

target: T1, human renal renin (Homo sapiens, UniProt P00797); assay: Inhibition of human renal renin in vitro (angiotensin I formed, radioimmunoassay); format: biochemical; conditions: human angiotensinogen substrate, 37 degrees C., pH 6.0
T1 construct: human renal renin, free from acid proteolytic activity; from tissue
T1 sequence (P00797 67-406): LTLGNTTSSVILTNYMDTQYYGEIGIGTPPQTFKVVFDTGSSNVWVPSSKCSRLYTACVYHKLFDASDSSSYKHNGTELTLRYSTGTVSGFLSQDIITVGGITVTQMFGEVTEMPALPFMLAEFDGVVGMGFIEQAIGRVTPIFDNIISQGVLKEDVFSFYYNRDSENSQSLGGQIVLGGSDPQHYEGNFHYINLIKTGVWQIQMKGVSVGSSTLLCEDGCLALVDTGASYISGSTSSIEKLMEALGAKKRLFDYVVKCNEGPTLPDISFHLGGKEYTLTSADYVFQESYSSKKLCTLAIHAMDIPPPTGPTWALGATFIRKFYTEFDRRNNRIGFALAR
Description: The novel compounds of the present invention are also useful for treating congestive heart failure. […] At the end of the incubation, the amount of angiotensin I formed is measured by radioimmunoassay and the molar concentration required to cause 50% inhibition, expressed as the IC50, is calculated.

Row | Structure (SMILES) | IC50
1 | CCCCC(C(=O)N[C@@H](CC1CCCCC1)[C@@H](O)[C@@H](O)CC(C)C)N1CCN(C(=O)OC(C)(C)C)[C@@H](Cc2ccccc2)C1 (stereo partly drawn) [Example 34A, 2-(3S-Benzyl-4-N-tert-butyloxycarbonyl-piperazin-1-yl)-hexanoic acid Amide of 2(S)-Amino-1-cyclohexyl-3(R),4(S)-dihydroxy-6-methylheptane] | 100 nM
2 | CCCCC(C(=O)N[C@@H](CC1CCCCC1)[C@@H](O)[C@@H](O)CC(C)C)N1CCN(C(=O)N(C)C)[C@H](Cc2ccccc2)C1 (stereo partly drawn) [Example 35A, 2-(3R-Benzyl-4-N-dimethylaminocarbonyl-piperazin-1-yl)-hexanoic acid Amide of 2(S)-Amino-1-cyclohexyl-3(R),4(S)-dihydroxy-6-methylheptane] | 91 nM
3 | CC(C)C[C@H](O)[C@H](O)[C@H](CC1CCCCC1)NC(=O)C(Cc1cscn1)N1CCN(Cc2ccccc2)[C@H](Cc2ccccc2)C1 (stereo partly drawn) [Example 36, 3-(4-Thiazolyl)-2-(R,S)-(3R-benzyl-4-N-benzylpiperazin-1-yl)-propionic acid Amide of 2(S)-Amino-1-cyclohexyl-3(R),4(S)-dihydroxy-6-methylheptane] | 330 nM
4 | CCCCC(C(=O)N[C@@H](CC1CCCCC1)[C@@H](O)[C@@H](O)CC(C)C)N1CCN(C(=O)N2CCOCC2)[C@H](Cc2ccccc2)C1 (stereo partly drawn) [Example 38A, 2-(3R-Benzyl-4-N-(morpholin-1-yl-carbonyl)-piperazin)-1-yl-hexanoic acid Amide of 2(S)-Amino-1-cyclohexyl-3(R),4(S)-dihydroxy-6-methylheptane] | 6.2 nM
5 | CCCC[C@@H](C(=O)N[C@@H](CC1CCCCC1)[C@@H](O)[C@@H](O)CC(C)C)N1CCN(C(=O)OC(C)(C)C)[C@H](Cc2ccccc2)C1=O [Example 44, 2(S)-(3R-Benzyl-4N-tert-butyloxycarbonyl-2-keto-piperazin-1-yl)-hexanoic acid Amide of 2(S)-Amino-1-cyclohexyl-3(R),4(S)-dihydroxy-6-methylheptane] | 15 nM
6 | CC(C)C[C@H](O)[C@H](O)[C@H](CC1CCCCC1)NC(=O)[C@@H](Cc1c[nH]cn1)N1CCN(C(=O)OC(C)(C)C)[C@H](Cc2ccccc2)C1=O [Example 45, 3R-(4-Imidazolyl)-2(R)-(3R-benzyl-4-N-tert-butyloxycarbonyl-2-keto-piperazin-1-yl)-propionic acid Amide of 2(S)-Amino-1-cyclohexyl-3(R),4(S)-dihydroxy-6-methylheptane] | 13 nM
7 | CCCC[C@@H](C(=O)N[C@@H](CC1CCCCC1)[C@@H](O)[C@@H](O)CC(C)C)N1CCN(C(=O)N2CCN(C)CC2)[C@H](Cc2ccccc2)C1=O [Example 47, 2(S)-(3R-Benzyl-4-N-(4-(N'-methyl)-piperazin-1-yl-carbonyl)-2-keto-piperazin-1-yl)-hexanoic acid Amide of 2(S)-Amino-1-cyclohexyl-3(R),4(S)-dihydroxy-6-methylheptane] | 81 nM
8 | CCCC[C@@H](C(=O)N[C@@H](CC1CCCCC1)[C@@H](O)[C@@H](O)CC(C)C)N1CCN(C(=O)N(C)CCOCOC)[C@H](Cc2ccccc2)C1=O [Example 48, 2(S)-(3R-Benzyl-4-N-(N-methyl-N-(methoxymethoxyethyl)-aminocarbonyl)-2-keto-piperazin-1-yl)-hexanoic acid Amide of 2(S)-Amino-1-cyclohexyl-3(R),4(S)-dihydroxy-6-methylheptane] | 22 nM
9 | CC(C)C[C@H](O)[C@H](O)[C@H](CC1CCCCC1)NC(=O)C(Cc1cscn1)N1CCN(C(=O)N2CCOCC2)[C@H](Cc2ccccc2)C1=O (stereo partly drawn) [Example 49B, 3-(4-Thiazolyl)-2-(3R-benzyl-4-N-morpholin-1-yl-carbonyl-2-keto-piperazin-1-yl)-propionic acid Amide of 2(S)-Amino-1-cyclohexyl-3(R),4(S)-dihydroxy-6-methylheptane] | 32 nM
10 | CCCC[C@@H](C(=O)N[C@@H](CC1CCCCC1)[C@@H](O)[C@@H](O)CC(C)C)N1CCN(C(=O)N2CCOCC2)[C@H](Cc2ccccc2)C1=O [Example 50, 2(S)-(3R-Benzyl-4-N-morpholin-1-yl-carbonyl-2-keto-piperazin-1-yl)-hexanoicacid Amide of 2(S)-Amino-1-cyclohexyl-3(R),4(S)-dihydroxy-6-methylheptane] | 22 nM
11 | CC(C)C[C@H](O)[C@H](O)[C@H](CC1CCCCC1)NC(=O)[C@H](Cc1c[nH]cn1)N1CCN(C(=O)N2CCOCC2)[C@H](Cc2ccccc2)C1=O [Example 51, 3-(4-Imidazolyl)-2(S)-(3R-benzyl-4-N-morpholin-1-yl-carbonyl-2-keto-piperazin-1-yl) -propionic Acid Amide of 2(S)-Amino-1-cyclohexyl-3(R),4(S)-dihydroxy-6-methylheptane] | 230 nM
12 | CC(C)C[C@H](O)[C@H](O)[C@H](CC1CCCCC1)NC(=O)[C@H](Cc1cnc[nH]1)N1CC[C@H](Cc2ccccc2)C1=O [Example 73, (2S)-2-(Imidazol-4-ylmethyl)-2-((3S)-phenylmethyl-2-oxo-pyrrolidin-1-yl)acetic acid amide of (2S,3R,4S)-2-amino-1-cyclohexyl-3,4-dihydroxy-6-methylheptane] | 67 nM
13 | CC(C)C[C@H](O)[C@H](O)[C@H](CC1CCCCC1)NC(=O)[C@H](Cc1cnc[nH]1)N1C[C@H](Cc2ccccc2)N(CC(C)C)C1=O [Example 118, (2S)-2-(Imidazol-4-ylmethyl)-2-(3-isobutyl-(4S)-phenylmethylimidazolidin-2-one-1-yl)acetic Acid Amide of (2)-Amino-1-cyclohexyl-3(R),4(S)-dihydroxy-6-methylheptane] | 150 nM
14 | CCN1C[C@@H]([C@H](O)[C@H](CC2CCCCC2)NC(=O)[C@H](Cc2cnc[nH]2)N2C[C@H](Cc3ccccc3)N(CC(C)C)C2=O)OC1=O [Example 119, (2S)-2-(Imidazol-4-ylmethyl)-2-(3-isobutyl-(4S)-phenylmethylimidazolidin-2-one-1-yl)acetic Acid Amide of (2'S,1'R,5S)-3-Ethyl-5-(1'-hydroxy-2'-amino-3'-cyclohexylpropyl)oxazolidin-2-one] | 150 nM
15 | CC(C)C[C@H](O)[C@H](O)[C@H](CC1CCCCC1)NC(=O)[C@H](Cc1c[nH]cn1)N1C[C@H](Cc2ccccc2)NC1=O [Example 120, (2S)-2-(Imidazol-4-ylmethyl)-2-((4S)-phenylmethylimidazolidin-2-one-1-yl)acetic Acid Amide of (2S)-Amino-1-cyclohexyl-3(R),4(S)-dihydroxy-6-methylheptane] | 650 nM
16 | CC(C)C[C@H](O)[C@H](O)[C@H](CC1CCCCC1)NC(=O)[C@H](Cc1c[nH]cn1)N1CC[C@@H](Cc2ccccc2)C1=O [Example 121, (2S)-2-(Imidazol-4-ylmethyl)-2-((3R)-phenylmethyl-2-oxopyrrolidin-1-yl)acetic Acid Amide of (2S)-Amino-1-cyclohexyl-3(R),4(S)-dihydroxy-6-methylheptane] | 430 nM
17 | CC(C)C[C@H](O)[C@H](O)[C@H](CC1CCCCC1)NC(=O)[C@H](Cc1c[nH]cn1)N1C[C@H](Cc2ccccc2)CC1=O [Example 122, (2S)-2-(Imidazol-4-ylmethyl)-2-((4R)-phenylmethyl-2-oxopyrrolidin-1-yl)acetic Acid Amide of (2S)-Amino-1-cyclohexyl-3(R),4(S)-dihydroxy-6-methylheptane] | 580 nM
